Values of other authors as cited in patent US20110250279A1, “CONTROLLED-RELEASE COMPOSITION FOR PRODUCING SUSTAINED-RELEASE PREPARATION CONTAINING UDENAFIL” (Dong-A Pharm. Co., Ltd., priority 2008, published 2011).

What was measured:
[1] = phase 1 clinical tests (Koreans and Caucasians)
[2] = not given; remark: listed apart in the source
PDE-5 = PDE-5 (Homo sapiens, UniProt O76074)

CCCOc1ccc(S(=O)(=O)NCCC2CCCN2C)cc1-c1nc2c(CCC)nn(C)c2c(=O)[nH]1 (stereo not drawn) [Udenafil, 3-(1-methyl-7-oxo-3-propyl-4,7-dihydro-1H-pyrazolo[4,3-d]pyrimidin-5-yl)-N-[2-(1-methylpyrrolidin-2-yl)ethyl]-4-propoxybenzenesulfonamide]
serious abnormal reactions by drugs [1]: did not generate serious abnormal reactions | volume of distribution in vivo: large volume of distribution | absorption (in vivo): rapidly absorbed | bioavailability (in vivo): high bioavailability | half life relative to sildenafil or vardenafil (in vivo): about three times longer | drug discontinuation rate ([2]; during the clinical tests): lowest | extent and frequency of side effects ([2]; phase 2 and 3 clinical tests, versus conventional oral therapeutic agents for erectile dysfunction): lower | inhibitory activity for PDE-5 (PDE-5): strong inhibitory activity | selectivity for PDE-5 (PDE-5): high selectivity
